The numbers were not newly measured in US20100055181A1, “CONTROLLED RELEASE DOSAGE FORMS OF ZOLPIDEM” (LUPIN LIMITED, priority 2006, published 2010), which cites them from elsewhere.

For this series the following is noted: hypnotic action, oral, conventional forms.

`Cc1ccc(-c2nc3ccc(C)cn3c2CC(=O)N(C)C)cc1` [zolpidem]: the duration of action entry is recorded as “up to 6 hours”.
